Test results: article PMC3278463, “Quercetin-4′-O-β-D-glucopyranoside (QODG) Inhibits Angiogenesis by Suppressing VEGFR2-Mediated Signaling in Zebrafish and Endothelial Cells” (PLoS ONE, 2012)
pIC50: −log10 of the molar value.

Molecular target: VEGFR2 (KDR/Flk-1) (Homo sapiens, UniProt P35968)
Test: ELISA-based in vitro VEGFR2 tyrosine kinase assay (HTScan VEGFR2 kinase assay kit)
Assay type: biochemical

Chain of VEGFR2 (KDR/Flk-1) (P35968 20-1356): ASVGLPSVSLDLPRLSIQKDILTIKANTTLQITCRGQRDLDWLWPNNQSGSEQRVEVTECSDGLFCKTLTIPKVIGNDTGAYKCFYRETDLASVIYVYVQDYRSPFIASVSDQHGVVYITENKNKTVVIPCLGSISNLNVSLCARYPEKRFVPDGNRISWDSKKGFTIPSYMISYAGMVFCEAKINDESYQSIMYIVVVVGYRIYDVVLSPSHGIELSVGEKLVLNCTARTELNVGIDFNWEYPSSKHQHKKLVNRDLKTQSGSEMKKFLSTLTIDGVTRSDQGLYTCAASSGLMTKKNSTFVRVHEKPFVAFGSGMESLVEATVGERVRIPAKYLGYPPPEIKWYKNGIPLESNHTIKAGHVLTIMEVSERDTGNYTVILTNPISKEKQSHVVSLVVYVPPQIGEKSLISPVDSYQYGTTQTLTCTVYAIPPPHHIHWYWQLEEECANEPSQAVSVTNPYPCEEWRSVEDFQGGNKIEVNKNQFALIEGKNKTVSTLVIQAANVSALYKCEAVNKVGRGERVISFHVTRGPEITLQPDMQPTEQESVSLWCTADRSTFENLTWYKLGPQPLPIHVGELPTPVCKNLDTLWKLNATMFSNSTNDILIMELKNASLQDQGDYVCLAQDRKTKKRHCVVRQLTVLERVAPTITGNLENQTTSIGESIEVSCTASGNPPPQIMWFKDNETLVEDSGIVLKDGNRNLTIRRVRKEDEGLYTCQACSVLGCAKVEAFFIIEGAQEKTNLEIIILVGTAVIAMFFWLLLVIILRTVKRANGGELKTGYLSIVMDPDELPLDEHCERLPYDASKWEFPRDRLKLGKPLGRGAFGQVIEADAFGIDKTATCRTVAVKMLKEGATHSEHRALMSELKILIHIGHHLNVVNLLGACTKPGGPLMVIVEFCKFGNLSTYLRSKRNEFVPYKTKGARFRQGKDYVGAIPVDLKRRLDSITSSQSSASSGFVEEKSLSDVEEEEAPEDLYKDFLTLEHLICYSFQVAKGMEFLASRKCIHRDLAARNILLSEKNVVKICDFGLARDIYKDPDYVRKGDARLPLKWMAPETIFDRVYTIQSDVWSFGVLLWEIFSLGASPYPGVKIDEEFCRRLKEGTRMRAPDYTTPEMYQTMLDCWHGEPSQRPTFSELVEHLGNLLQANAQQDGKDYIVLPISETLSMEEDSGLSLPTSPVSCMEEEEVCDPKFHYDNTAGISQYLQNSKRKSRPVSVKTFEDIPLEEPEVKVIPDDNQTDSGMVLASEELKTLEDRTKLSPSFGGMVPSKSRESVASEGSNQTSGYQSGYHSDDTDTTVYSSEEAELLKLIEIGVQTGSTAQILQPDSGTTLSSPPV

- pIC50: 7.70
SMILES: O=c1c(O)c(-c2ccc(O[C@@H]3O[C@H](CO)[C@@H](O)[C@H](O)[C@H]3O)c(O)c2)oc2cc(O)cc(O)c12 [QODG, Quercetin-4′-O-β-D-glucopyranoside]
